# Experimental data from patent publication US20110268842A1 (SIGMA ALIMENTOS, S.A. DE C.V., priority 2008, published 2011).
# Tested on: Bifidobacterium animalis PTA-9175
# Experiment: Determination of resistance patterns (Kirby-Bauer, inhibition halos)
# Assay type: cell-based
# Details: sensidiscs on Mueller-Hinton agar; diameter 0 = resistant
# Method: Method: To determine the phenotype of resistance to antibiotics the Kirby-Bauer method was used. From a young culture of 18 to 24 hours several colonies were taken with a sterile swab and inoculated into a test tube with a sterile, isotonic saline solution. The inoculum was visually adjusted to a turbidity of 0.5 on the McFarland scale. Within 15 minutes the inoculum was adjusted, a sterile swab was introduced into the suspension and when removing it the excess liquid was eliminated. Agar Mueller-Hinton plates were inoculated, leaving no free zone, sliding the swab across the surface of the agar 3 times, rotating the plate 60° each time and finally passing it over the periphery of the agar to achieve a uniform seed.
# The plates were left to dry for 3 to 5 min and the sensidiscs of the following antibiotics were placed: norfloxacin, cephalothin, azithromycin, tobramycin, ampicillin/sulbactam, erythromycin cefatoxim, nalidixic acid, ceftazidime, aztreonam, vancomycin, cefuroxime, rifampicyn, nitrofurantoin, oxacylin, nefilmicin amikacin, kanamycin ticarcillin, clindamycin, ampicillin.
# All strains with an inhibition diameter of 0 are resistant to the tested antibiotic.
row,Molecule,Inhibition halo (mm)
1,NCC[C@H](O)C(=O)N[C@@H]1C[C@H](N)[C@@H](O[C@H]2O[C@H](CN)[C@@H](O)[C@H](O)[C@H]2O)[C@H](O)[C@H]1O[C@H]1O[C@H](CO)[C@@H](O)[C@H](N)[C@H]1O [Amikacin],0
2,CC1(C)S[C@@H]2[C@H](NC(=O)[C@H](N)c3ccccc3)C(=O)N2[C@H]1C(=O)O [Ampicillin],35
3,CC[C@H]1OC(=O)[C@H](C)[C@@H](O[C@H]2C[C@@](C)(OC)[C@@H](O)[C@H](C)O2)[C@H](C)[C@@H](O[C@@H]2O[C@H](C)C[C@H](N(C)C)[C@H]2O)[C@](C)(O)C[C@@H](C)CN(C)[C@H](C)[C@@H](O)[C@]1(C)O [Azithromycin],30
4,C[C@H]1[C@H](NC(=O)/C(=N\OC(C)(C)C(=O)O)c2csc(N)n2)C(=O)N1S(=O)(=O)O [Aztreonam],0
5,CO/N=C(\C(=O)N[C@@H]1C(=O)N2C(C(=O)O)=C(COC(C)=O)CS[C@H]12)c1csc(N)n1 [Cefatoxim],40
6,CC(C)(O/N=C(\C(=O)N[C@@H]1C(=O)N2C(C(=O)[O-])=C(C[n+]3ccccc3)CS[C@H]12)c1csc(N)n1)C(=O)O [Ceftazidime],38
7,CO/N=C(\C(=O)N[C@@H]1C(=O)N2C(C(=O)O)=C(COC(N)=O)CS[C@H]12)c1ccco1 [Cefuroxime],25
8,CC(=O)OCC1=C(C(=O)O)N2C(=O)[C@@H](NC(=O)Cc3cccs3)[C@H]2SC1 [Cephalothin],24
9,CCC[C@@H]1C[C@@H](C(=O)N[C@@H]([C@H]2O[C@H](SC)[C@H](O)[C@@H](O)[C@H]2O)[C@H](C)Cl)N(C)C1 [Clindamycin],43
10,CC[C@H]1OC(=O)[C@H](C)[C@@H](O[C@H]2C[C@@](C)(OC)[C@@H](O)[C@H](C)O2)[C@H](C)[C@@H](O[C@@H]2O[C@H](C)C[C@H](N(C)C)[C@H]2O)[C@](C)(O)C[C@@H](C)C(=O)[C@H](C)[C@@H](O)[C@]1(C)O [Erythromycin],40
11,NC[C@H]1O[C@H](O[C@H]2[C@H](O)[C@@H](O[C@H]3O[C@H](CO)[C@@H](O)[C@H](N)[C@H]3O)[C@H](N)C[C@@H]2N)[C@H](O)[C@@H](O)[C@@H]1O [Kanamycin],0
12,CCn1cc(C(=O)O)c(=O)c2ccc(C)nc21 [Nalidixic acid],0
13,O=C1CN(/N=C/c2ccc([N+](=O)[O-])o2)C(=O)N1 [Nitrofurantoin],40
14,CCn1cc(C(=O)O)c(=O)c2cc(F)c(N3CCNCC3)cc21 [Norfloxacin],0
15,CC1COc2c(N3CCN(C)CC3)c(F)cc3c(=O)c(C(=O)O)cn1c23 (stereo not drawn) [Ofloxacin],12
16,Cc1onc(-c2ccccc2)c1C(=O)N[C@@H]1C(=O)N2[C@@H]1SC(C)(C)[C@@H]2C(=O)O [Oxacylin],0
17,CC1(C)S[C@@H]2[C@H](NC(=O)[C@H](C(=O)O)c3ccsc3)C(=O)N2[C@H]1C(=O)O [Ticarcillin],40
18,NC[C@H]1O[C@H](O[C@H]2[C@H](O)[C@@H](O[C@H]3O[C@H](CO)[C@@H](O)[C@H](N)[C@H]3O)[C@H](N)C[C@@H]2N)[C@H](N)C[C@@H]1O [Tobramycin],0
19,CN[C@H](CC(C)C)C(=O)N[C@H]1C(=O)N[C@@H](CC(N)=O)C(=O)N[C@H]2C(=O)N[C@H]3C(=O)N[C@H](C(=O)N[C@H](C(=O)O)c4cc(O)cc(O)c4-c4cc3ccc4O)[C@H](O)c3ccc(c(Cl)c3)Oc3cc2cc(c3O[C@@H]2O[C@H](CO)[C@@H](O)[C@H](O)[C@H]2O[C@H]2C[C@](C)(N)[C@H](O)[C@H](C)O2)Oc2ccc(cc2Cl)[C@H]1O [Vancomycin],27
20,Ampicillin/Sulbactam,30
21,Nefilmicin,0
22,Rifampicyn,2

# Tested on: homocysteine concentration in the blood
# Experiment: not given
# Details: 400 μg/day; cited from earlier work
row,Molecule,effect on homocysteine concentration in the blood
1,Nc1nc2ncc(CNc3ccc(C(=O)N[C@@H](CCC(=O)O)C(=O)O)cc3)nc2c(=O)[nH]1 [folic acid],decrease the levels of homocysteine concentration in the blood

# Tested on: not given
# Experiment: not given
# Details: supplements before conception; cited from earlier work
row,Molecule,reduction of the risks of neurological defects in the future child [%]
1,Nc1nc2ncc(CNc3ccc(C(=O)N[C@@H](CCC(=O)O)C(=O)O)cc3)nc2c(=O)[nH]1 [folic acid],50
